According to article PMC7482066, “Unstable Mechanisms of Resistance to Inhibitors of Escherichia coli Lipoprotein Signal Peptidase” (mBio, 2020):

Experiments:
E. coli MG1655 ΔtolC = test: MIC; format: cell-based; conditions: E. coli MG1655 WT vs MG1655 ΔtolC
Protocol: MICs of compounds in each strain were determined in cation-adjusted Mueller-Hinton II (MHII) broth or MHII agar according to the Clinical and Laboratory Standards Institute protocol (CLSI 2006). To measure the effect of protein binding on activity, MIC assays were performed in the presence of 50% heat-inactivated human serum. The serum killing assay was performed as described previously ([43]). FOR assays and growth on plates containing G0790 were always performed on MHII agarose plates.

E. coli CFT073 imp4213 = test: Frequency of resistance (FOR); format: cell-based; conditions: 4× MIC, MHII agarose
Protocol: Frequencies of resistance (FORs) of G0790 were determined for E. coli CFT073, E. cloacae (ATCC 13047), and K. pneumoniae (ATCC 700603) as previously published ([70]). To determine the FOR, 3 to 4 colonies of the strain to be tested were picked from a fresh plate and diluted to an optical density at 600 nm (OD600) of 0.00001 in 1 ml of cation-adjusted MHBII. Ten independent 5-ml cultures in MHBII were prepared by inoculating 5 μl (approximately 1 × 10^3 CFU) and incubated at 37°C for 18 h. The bacteria were pelleted by centrifugation at 4000 × g at 4°C for 15 min and resuspended in 0.5 ml fresh MHBII. Two hundred fifty microliters of the bacterial suspension was plated evenly on MHII agarose plates containing globomycin or G0790 at a final concentration of 4× and 8× MIC. In parallel, CFU from each independent culture was measured by spotting 10-fold serial dilutions on MHII agar plates and incubated at 37°C for 18 h. Colonies were counted at days 1, 2, and 3 postinoculation. FOR was calculated as the ratio of the total number of resistant colonies relative to the total CFU plated. For strains that had no resistant colonies growing on plates, the p0 method was used to calculate the FOR (FOR = m/total CFU plated, where m = −ln p0 and p0 is the proportion of cultures with no mutants; 0.7 ≥ p0 ≥ 0.1), as described previously ([71]). Colonies were picked and resuspended in 30 μl MHBII broth medium, and 10 μl was plated on an MHII agar plate containing G0790 to be used to determine the MIC. Of the remaining 20 μl, half was used to inoculate 1.5 ml MHBII broth medium containing G0790 and grown at 37°C for 18 h to generate cell lysates for Western blot analysis, isolate genomic DNA (gDNA) for whole-genome sequencing, and for frozen glycerol stocks.

E. coli CFT073 = test: Bactericidal activity, CFU over time; format: cell-based; conditions: G0790 at 2× MIC, two independent experiments in duplicates
Lpp = conditions: in words; cited from earlier work
Excerpt: We confirmed that the increase in potency against WT bacterial strains was specific to LspA by using multiple parallel approaches. […] Third, like GBM, G0790 is bactericidal, a ...

LspA = conditions: cited from earlier work; for LspA inhibition, mode: in words
Excerpt: Bacterial lipoprotein biosynthesis is an attractive target for novel antibiotic drug discovery, as bacterial lipoproteins play critical roles in adhesion, nutrient uptake, antibiotic resistance, virulence, invasion, and immune evasion ([14]). Lipoprotein biosynthesis in Gram-negative bacteria is mediated by three essential inner membrane-localized enzymes ([14]), which work sequentially to generate the mature triacylated lipoproteins. The second enzyme in the pathway, prolipoprotein signal peptidase (LspA), is an aspartyl endopeptidase which cleaves off the signal peptide N-terminal to a conse ... || Our efforts to identify potent GBM analogs were driven by whole bacterial cell activity assays due to the low translatability of in vitro biochemical activity ([34], [35]).

[1] = system: wild-type (WT) Gram-negative bacteria; conditions: in words; cited from earlier work
Excerpt: Therefore, with the goal of increasing GBM whole-cell potency through medicinal chemistry optimization, we identified G0790 as an analog with increased growth inhibitory activity against multiple Gram-negative bacterial species ([36]). G0790 contains (S)-2,3-diaminopropionic acid (Dap), cyclohexylglycine (Chg), and N-methyl ...

[2] = system: lspA-overexpressing or lpp-deleted bacteria; conditions: in words, cited from earlier work

Row | SMILES | WT/tolC MIC shift (E. coli MG1655 ΔtolC) [fold] | FOR (frequency of resistance) (E. coli CFT073 imp4213) | Bactericidal activity (E. coli CFT073) | Accumulation of peptidoglycan-associated Lpp in the inner membrane (Lpp) | LspA inhibition, mode (LspA) | Ki (LspA; previously described by Dev et al.) [nM] | Growth inhibition of WT Gram-negative bacteria [1] | Effect of plasmid-based lspA overexpression [2] | Effect of complete Lpp deletion ([2]; previous finding, ref as printed: none in abstract)
1 | CCCCCC[C@H]1OC(=O)CNC(=O)[C@H]([C@H](C)O)NC(=O)[C@H](CO)NC(=O)[C@H]([C@H](C)CC)NC(=O)[C@H](CC(C)C)N(C)C(=O)[C@@H]1C [GBM, globomycin] | ~128 | 1.4 × 10^−9 | bactericidal | accumulation of the peptidoglycan-associated form of Lpp in the inner membrane | inhibit LspA function by targeting the catalytic dyad aspartic acid residues | 36 | weak growth inhibition | confer resistance | leads to globomycin resistance
2 | CCCC1OC(=O)C(C)CC(C)CCCCC(=O)CCCC(CC)/C=C/C=C(\COC)CCC(O)C(O)CC(O)CNC1=O (centres unmarked) [myxovirescin] |  |  |  |  | inhibit LspA function by targeting the catalytic dyad aspartic acid residues |  |  | confer resistance | 
